# Measured values: patent publication US12410323B2, “Potent antifouling agents albofungins target multiple fouling organisms” (The Hong Kong University of Science and Technology, priority 2021, dated 2025)
# Key:
# [1] = test system: bryozoan Bugula neritina larvae; assay: Anti-larval settlement bioassay, bryozoan; assay type: in vivo
# Experimental: (§1) A. amphitrite adults were collected from Pak Sha Wan Pier, Hong Kong (22° 38′N, 114° 28′E) and after keeping in the dark for 24 h, a light source was used to stimulate the larval release. Within 1 h, the larvae were collected and cultured in 0.22 μm filtered seawater with a daily diet of Chaetoceros gracilis Schutt at 1×10^6 cells mL^−1 until their growth into cyprids, which were used for the anti-larval settlement bioassay. The bryozoan B. neritina adults were collected from a fish farm in Pak Shek Kok, Hong Kong (22° 43′N, 114° 20′E) and kept in flow-through seawater for no more than 7 days before use. The larvae were released within 30 minutes before the bioassay as described (Xu et al., 2010). The bioassay was conducted in a 24-well polystyrene tissue culture plate with 15-20 larvae in each well. 0.1% of DMSO in filtered seawater (FSW), and 0.625, 1.25, 2.5, 5, 10, 20, and 40 μg mL^−1 albofungin concentrations were tested in triplicate. In each well, 1 mL of FSW containing 15-20 larvae and 1 mL of albofungin solution of different concentrations. The plate was kept for 48 h at 25° C. (bryozoan B. neritina larvae were kept for 3 h). The wells with 0.1% of DMSO in FSW served as a negative control, and butenolide was used as a positive control. The number of attached, swimming, and dead larvae were counted under an Olympus optical microscope (Olympus Corporation, Tokyo, Japan). The settlement rate was calculated as the ratio of settled larvae to the total number of larvae in each well, and the death rate was calculated as the ratio of dead or missing larvae to the total number of larvae in each well. Half maximal effective concentration (EC50) and half lethal concentration (LC50) were determined for each compound, and the ratio of LC50/EC50 was used to evaluate the toxicity of the antifoulant. Experiments were performed in triplicate. Data were analyzed by one-way ANOVA to detect significant differences in the larval settlement, and SD was calculated by GraphPad Prism 9.
# [2] = Anti-larval settlement bioassay, bryozoan; assay type: in vivo, Bugula neritina; details: Bugula neritina (bryozoan), larvae, in vivo; larval mortality, 3 h
# Experimental: as §1
# [3] = Release rate of albofungin from coatings into artificial seawater (HPLC); assay type: physicochemical; details: for highest release rate: first day, artificial seawater
# Experimental: Around 1 g of albofungin compound was isolated, purified and analyzed using HPLC to guarantee over 95% purity. Albofungin-based hydrolysable and degradable copolymer coating was prepared as follows: methyl methacrylate (MMA) and tributylsilyl methacrylate (TBSM) copolymer (PMSMO) was synthesized via radical ring-opening polymerization (Zhou et al., 2015). For 5 wt % of albofungin-based coating, 0.95 g of PMSMO and 0.05 g of albofungin were dissolved in xylene and tetrahydrofuran (v:v=1:2) and mixed vigorously at room temperature. The solution was then coated on the PVC panels (4×7 cm^2) and dried at room temperature for 7 days (Ma et al., 2017). Other coatings with different albofungin concentrations (10 and 15 wt %) were prepared using the same procedure. The coating with PMSMO only was used as a […]. Each concentration was prepared for three biological replicates. The field test was conducted from March to April 2021 in a fish farm at Yung Shue O, Hong Kong (22° 24′N, 114° 21′E), which was heavily fouled all year round. The PVC panel was submerged into seawater at a depth of 0.5 meters for 2 months, retrieved, washed with seawater, and photographed. The area covered by biofoulers was calculated by Image J (Fiji-2.2.0) (Schindelin, et al., 2012). One-way ANOVA was used to compare the albofungin-coated panels and the control panels. The release rate of albofungin under static conditions was determined by measuring the compound concentration with HPLC. Albofungin-based coatings were applied onto a PVC panel (20×75 mm^2) and submerged in artificial seawater (ASW). After 7 days, the panel was transferred to an individual container with 100 mL of ASW. After 24 h of immersion, 10 mL of the seawater was taken out of the container and extracted with the same volume of ethyl acetate three times. After drying under the SpeedVac vacuum concentrators, the extracts were dissolved in 100 μL of methanol and then subjected to HPLC using a reversed-phase system (Waters 2695) with a Phenomenex Luna C18 column connected to a UV detector at 300 nm. The unique UV absorption of albofungin and retention time were determined, with the amount being calculated from the established standard curves using peak areas plotted against known standard quantities.
# MRSA ATCC 43300 = assay: Biofilm inhibition assay (MTT), pathogenic bacteria; assay type: cell-based, Staphylococcus aureus; details: lowest concentration inhibiting 90% of biofilm formation
# Experimental: (§2) The ability of the bacteria to form static biofilms was tested. Marine bacteria were cultured overnight in marine broth at 22° C. with 220 rpm agitation (Pseudomonas pachastrellae MCCC 1A01390, Sulfitobacter pontiacus MCCC 1A04899 and Psychrobacter nivimaris MCCC 1A 11723) and at 30° C. (Staphylococcus aureus B04, Staphylococcus sp. Z01 and Micrococcus sp. Z02) and then diluted to 10^7 CFU mL^−1 in marine broth supplemented with 1% of glucose; pathogenic bacteria was cultured overnight in LB broth with 1% glucose with 220 rpm at 37° C. Afterwards, 200 μL of the diluted solution were added to each well of a 96-well plate (Corning Inc., New York, USA) and was then incubated at 22° C. or 30° C. for 24 h. The culture medium, planktonic cells and loosely adhered bacteria were removed by dual washing with a phosphate-buffered saline (PBS) buffer, and the firmly attached bacteria were incubated with 20 μL of MTT (5 mg mL^−1) at 37° C. for 3 h. The supernatant was discarded, and formazan was dissolved in 150 μL of DMSO. Absorbance was measured using the Multiskan™ FC microplate photometer (Thermo Fisher Scientific, Waltham, USA) under 570 nm, and MRSA ATCC 43300 was used as a positive control. All the experiments were performed in triplicate.
# The antibacterial activities of albofungins were tested following specific protocols (She et al., 2020). Marine broth was used as the test medium for the marine bacteria, and the MHB broth was used as the test medium for the pathogenic bacteria. The plate was kept at 22° C. or 30° C. overnight, and the minimum inhibitory concentration (MIC) is the lowest concentration that the drug prevents the visible growth of bacteria. The bacteria which have successfully formed biofilms were further used for antibiofilm formation assays. Different concentrations of albofungin compounds were added to each well. Biofilm formation was assessed through the MTT assay as previously described. […] Data were analyzed using one-way ANOVA to detect significant differences and standard deviation (SD) was calculated using GraphPad Prism 9. […]
# [4] = test system: Acinetobacter baumannii B-65371; assay: as above; assay type: cell-based; details: lowest concentration inhibiting 90% of biofilm formation
# Experimental: as §2
# (§3) The antibacterial activities of albofungins were tested following specific protocols (She et al., 2020). Marine broth was used as the test medium for the marine bacteria, and the MHB broth was used as the test medium for the pathogenic bacteria. The plate was kept at 22° C. or 30° C. overnight, and the minimum inhibitory concentration (MIC) is the lowest concentration that the drug prevents the visible growth of bacteria. The bacteria which have successfully formed biofilms were further used for antibiofilm formation assays. Different concentrations of albofungin compounds were added to each well. Biofilm formation was assessed through the MTT assay as previously described. […] Data were analyzed using one-way ANOVA to detect significant differences and standard deviation (SD) was calculated using GraphPad Prism 9. All the assays were performed in triplicate.
# [5] = test system: Enterobacter cloacae NRRL-B-425; assay: as above; assay type: cell-based; details: lowest concentration inhibiting 90% of biofilm formation
# Experimental: as §2, §3
# Escherichia coli k12 = assay: as above; assay type: cell-based; details: lowest concentration inhibiting 90% of biofilm formation
# Experimental: as §2, §3
# Staphylococcus aureus 04 [6] = assay: Biofilm inhibition assay (MTT), marine bacteria; assay type: cell-based; details: lowest concentration inhibiting 90% of biofilm formation; 24 h
# Experimental: as §2, §3
# [7] = test system: MCCC 1A11723 Psychrobacter nivimaris; assay: Biofilm inhibition assay (MTT), marine bacteria; assay type: cell-based; details: lowest concentration inhibiting 90% of biofilm formation; 24 h
# Experimental: as §2, §3
# [8] = test system: MCCC 1A01390 Pseudomonas pachastrellae; assay: Biofilm inhibition assay (MTT), marine bacteria; assay type: cell-based; details: lowest concentration inhibiting 90% of biofilm formation; 24 h
# Experimental: as §2, §3
# Micrococcus sp. Z02 [9] = assay: Biofilm inhibition assay (MTT), marine bacteria; assay type: cell-based; details: lowest concentration inhibiting 90% of biofilm formation; 24 h
# Experimental: as §2, §3
# Staphylococcus sp. Z01 [10] = assay: Biofilm inhibition assay (MTT), marine bacteria; assay type: cell-based; details: lowest concentration inhibiting 90% of biofilm formation; 24 h
# Experimental: as §2, §3
# [11] = test system: MCCC 1A04899 Sulfitobacter pontiacus; assay: Biofilm inhibition assay (MTT), marine bacteria; assay type: cell-based; details: lowest concentration inhibiting 90% of biofilm formation; 24 h
# Experimental: as §2, §3
# Staphylococcus aureus 04 [12] = assay: Bacterial growth inhibition (antibacterial assay, MIC); assay type: cell-based; details: marine broth, overnight
# Experimental: as §3
# [13] = test system: MCCC 1A11723 Psychrobacter nivimaris; assay: as above; assay type: cell-based; details: marine broth, overnight
# Experimental: as §3
# [14] = test system: MCCC 1A01390 Pseudomonas pachastrellae; assay: as above; assay type: cell-based; details: Halopseudomonas pachastrellae; marine broth, overnight
# Experimental: as §3
# Micrococcus sp. Z02 [15] = assay: as above; assay type: cell-based; details: marine broth, overnight
# Experimental: as §3
# Staphylococcus sp. Z01 [16] = assay: as above; assay type: cell-based; details: marine broth, overnight
# Experimental: as §3
# [17] = test system: MCCC 1A04899 Sulfitobacter pontiacus; assay: as above; assay type: cell-based
# Experimental: as §3
# [18] = test system: barnacle Amphibalanus amphitrite larvae; assay: Anti-larval settlement bioassay, barnacle; assay type: in vivo; details: for EC50: Amphibalanus amphitrite, 48 h; for settlement rate compared with control group (0.1% DMSO in FSW): after 48 h of incubation; for LC50/EC50: ratio used to evaluate toxicity of the antifoulant
# Experimental: as §1
# [19] = Anti-larval settlement bioassay, barnacle; assay type: in vivo, Amphibalanus amphitrite; details: Amphibalanus amphitrite (barnacle), cyprid larvae, in vivo; larval mortality, 48 h at 25° C.
# Experimental: as §1
SMILES,MBIC90 (MRSA ATCC 43300),MBIC90 [4],MBIC90 [5],MBIC90 (Escherichia coli k12),MBIC90 (Staphylococcus aureus 04 [6]),MBIC90 [7],MBIC90 [8],MBIC90 (Micrococcus sp. Z02 [9]),MBIC90 (Staphylococcus sp. Z01 [10]),MBIC90 [11],MIC (Staphylococcus aureus 04 [12]),MIC [13],MIC [14],MIC (Micrococcus sp. Z02 [15]),MIC (Staphylococcus sp. Z01 [16]),MIC [17],EC50 [18],settlement rate compared with control group (0.1% DMSO in FSW) [18],LC50/EC50 [18],LC50 at 48 h [19],also measured
"CO[C@@H]1CC[C@H](O)c2c1oc1c3c4c(c(O)c1c2=O)-c1c(cc2cc(C)n(N)c(=O)c2c1O)C[C@H]4OCO3 [Albofungin (1), albofungin]",0.01 to 0.03 µg/mL,0.06 to 0.13 µg/mL,1.25 to 2.5 µg/mL,0.63 to 1.25 µg/mL,15.63 to 31.25 ng/mL,10 to 20 µg/mL,0.25 to 0.50 µg/mL,31.25 to 62.50 ng/mL,0.63 to 1.25 ng/mL,0.13 to 0.25 µg/mL,0.0032 µg/mL,> 20 µg/mL,0.5 µg/mL,0.0032 µg/mL,0.0008 µg/mL,0.032 µg/mL,1.6 µg/mL,significantly lower,62.5,> 100 µg/mL,"larval settlement ([1]; 2.5 μg mL^−1, 3 h): 44% (±9.0%); EC50 ([1]; Bugula neritina, larval settlement, 3 h): 1.9 µg/mL; lethal effects ([1]; highest concentration tested): no lethal effects; LC50/EC50 ([1]; ratio used to evaluate toxicity of the antifoulant): 52.6; LC50 at 3 h [2]: > 100 µg/mL; highest release rate ([3]; 5 wt % albofungin coating): 0.86 μg day-1 cm^−2; highest release rate ([3]; 10 wt % albofungin coating): 1.1 μg day-1 cm^−2; release rate decreased to ([3]; 15, 10 and 5 wt % coatings, time-dependent, within 35 days): approximately 0.08 μg day-1 cm^−2; highest release rate ([3]; 15 wt % albofungin coating): 1.4 μg day-1 cm^−2; larval settlement rate ([18]; 2.5 μg mL^−1, 48 h): 33% (±5.3%); antifouling activity against larval settlement compared with butenolide ([18]; according to the EC50 value): equivalent antifouling activity"
"Cc1cc2cc3c(c(O)c2c(=O)n1N)-c1c2c(c4oc5c(c(=O)c4c1O)[C@@H](O)CC[C@H]5O)OCO[C@@H]2C3 [Albofungin A (2), albofungin A]",0.01 to 0.03 µg/mL,0.13 to 0.25 µg/mL,0.63 to 1.25 µg/mL,0.31 to 0.63 µg/mL,15.63 to 31.25 ng/mL,>20 µg/mL,0.02 to 0.03 µg/mL,62.5 to 125 ng/mL,0.63 to 1.25 ng/mL,0.02 to 0.03 µg/mL,0.0064 µg/mL,> 20 µg/mL,0.12 µg/mL,0.0064 µg/mL,0.0008 µg/mL,0.008 µg/mL,12.2 µg/mL,significantly lower,8.2,> 100 µg/mL,"larval settlement rate ([18]; 20 μg mL^−1, 48 h): 17% (±12.7%)"
